{
  "source": "paper PMC8381505",
  "about": "“Phase 1 clinical trial of the PI3Kδ inhibitor YY-20394 in patients with B-cell hematological malignancies” (Journal of Hematology & Oncology, 2021)",
  "key": {"PI3Kδ": {"target": "PI3Kδ (Homo sapiens, UniProt O00329)", "sequence (O00329 whole entry)": "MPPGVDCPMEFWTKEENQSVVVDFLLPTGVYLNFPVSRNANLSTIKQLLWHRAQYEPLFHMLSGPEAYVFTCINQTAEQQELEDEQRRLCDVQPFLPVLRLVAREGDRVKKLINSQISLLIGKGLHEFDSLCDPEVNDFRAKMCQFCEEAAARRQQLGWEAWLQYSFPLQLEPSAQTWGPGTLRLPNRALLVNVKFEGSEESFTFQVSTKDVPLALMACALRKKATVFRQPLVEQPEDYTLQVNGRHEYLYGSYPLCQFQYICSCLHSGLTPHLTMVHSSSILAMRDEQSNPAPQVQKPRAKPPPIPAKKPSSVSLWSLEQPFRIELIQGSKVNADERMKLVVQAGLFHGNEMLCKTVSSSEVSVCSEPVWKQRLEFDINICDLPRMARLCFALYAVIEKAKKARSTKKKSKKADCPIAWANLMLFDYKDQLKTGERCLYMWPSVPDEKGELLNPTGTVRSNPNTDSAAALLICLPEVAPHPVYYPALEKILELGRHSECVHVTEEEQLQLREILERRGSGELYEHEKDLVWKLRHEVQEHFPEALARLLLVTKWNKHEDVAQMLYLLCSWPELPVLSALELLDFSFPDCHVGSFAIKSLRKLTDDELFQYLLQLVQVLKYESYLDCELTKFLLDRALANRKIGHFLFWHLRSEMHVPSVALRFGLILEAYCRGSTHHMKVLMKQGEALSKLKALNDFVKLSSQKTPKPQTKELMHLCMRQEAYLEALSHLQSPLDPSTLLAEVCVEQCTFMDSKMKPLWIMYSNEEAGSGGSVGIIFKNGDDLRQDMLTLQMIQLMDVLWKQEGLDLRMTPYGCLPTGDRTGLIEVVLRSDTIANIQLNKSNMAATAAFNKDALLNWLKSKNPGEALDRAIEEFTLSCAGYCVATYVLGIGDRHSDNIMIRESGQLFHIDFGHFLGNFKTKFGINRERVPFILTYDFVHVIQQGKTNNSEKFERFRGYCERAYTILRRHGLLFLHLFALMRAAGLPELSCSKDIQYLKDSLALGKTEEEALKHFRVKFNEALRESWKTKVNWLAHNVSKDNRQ", "sequence (P27986 whole entry partner)": "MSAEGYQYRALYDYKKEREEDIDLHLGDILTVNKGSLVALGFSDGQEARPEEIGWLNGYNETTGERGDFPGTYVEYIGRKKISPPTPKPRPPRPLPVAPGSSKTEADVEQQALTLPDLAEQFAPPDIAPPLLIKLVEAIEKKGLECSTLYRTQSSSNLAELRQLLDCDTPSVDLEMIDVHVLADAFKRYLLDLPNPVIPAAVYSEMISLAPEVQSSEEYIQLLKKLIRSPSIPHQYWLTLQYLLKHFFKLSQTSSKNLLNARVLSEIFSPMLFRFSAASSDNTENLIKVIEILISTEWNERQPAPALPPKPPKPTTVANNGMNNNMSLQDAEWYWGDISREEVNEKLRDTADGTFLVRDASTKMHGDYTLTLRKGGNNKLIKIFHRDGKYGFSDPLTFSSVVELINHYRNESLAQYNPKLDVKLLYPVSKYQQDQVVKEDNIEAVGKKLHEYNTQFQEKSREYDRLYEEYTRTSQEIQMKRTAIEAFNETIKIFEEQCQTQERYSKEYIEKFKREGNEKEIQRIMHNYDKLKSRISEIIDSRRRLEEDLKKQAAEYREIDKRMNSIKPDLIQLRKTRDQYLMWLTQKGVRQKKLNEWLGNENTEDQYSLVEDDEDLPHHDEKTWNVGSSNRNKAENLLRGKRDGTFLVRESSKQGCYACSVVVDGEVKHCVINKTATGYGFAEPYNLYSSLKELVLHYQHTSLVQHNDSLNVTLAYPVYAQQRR", "experiment": "PI3Kδ kinase inhibition", "format": "biochemical"}, "[1]": {"experiment": "Pharmacokinetics in patients after a single dose", "format": "in vivo, human", "settings": "for AUC(0-inf) / AUC(0-t) / Cmax / Tmax / Vd/F / half-life / MRT last / MRT inf: human, serum, oral; for AUC(0-inf) / AUC(0-t) / Cmax / Tmax / Vd/F / half-life / MRT last / MRT inf / CL/F: single dose; for MRT last: read-out: MRT0→t; for MRT inf: read-out: MRT0→∞", "excerpt": "Additional File 5: Table S3. Mean pharmacokinetic parameters of patients after a single dose in each dosage group"}, "[2]": {"test_system": "relapsed or refractory B-cell malignancies", "experiment": "Phase 1 dose escalation: efficacy (ORR, DCR, PFS) in patients", "format": "in vivo, human", "experimental": "Patients ≥ 18 years old with refractory or relapsed B-cell malignancies were enrolled from November, 2017 to completion of the trial in November, 2019. Inclusion and exclusion criteria are listed in Additional file 2 and baseline patient characteristics in Additional file 3: Table S2.\nDuring dose escalation, patients received YY-20394 tablets q.d. at dosages of 20, 40, 80, 140 or 200 mg. The maximum tolerated dose (MTD), dose escalation phase and dose-limiting toxicity (DLT) as well as hematological toxicity classifications are described in Additional file 4. The primary endpoints were safety, tolerability and the MTD of YY-20394. Secondary endpoints were PK parameters and efficacy. Response criteria followed the revised International Research Working Group (IRWG) for non-Hodgkin lymphomas (NHL), and the International Working Group on Chronic Lymphocytic Leukemia (IWCLL) criteria for CLL [8]. Efficacy determinations were the objective response rate (ORR), disease control rate (DCR), complete remission (CR), partial remission (PR), stable disease (SD), progressive disease (PD) and progression-free survival (PFS)."}, "[3]": {"settings": "10 FL patients, 9/10, 95% CI 71.4, 100.0"}},
  "note": "Read-outs that look alike come from different tables or passages of the source.",
  "data": [
    {"compound": "COc1ncc(-c2nc(N3CCOCC3)nc3c(CN4CCC(C(C)(C)O)CC4)cc(F)cc23)cc1NS(C)(=O)=O", "note": "[YY-20394, N-[5-[6-fluoro-8-[[4-(1-hydroxy-1-methylethyl)-1-piperidinyl]methyl]-2-(4-morpholinyl)-4-quinazolinyl]-2-methoxy-3-pyridinyl]-methanesulfonamide]", "values": [
      {"measurement": "IC50", "setting": "PI3Kδ", "value": 4.6, "unit": "nM"},
      {"measurement": "AUC(0-inf)", "setting": "[1]; 20 mg, mean", "value": 1390, "unit": "ng·h/mL"},
      {"measurement": "AUC(0-t)", "setting": "[1]; 20 mg, mean", "value": 1140, "unit": "ng·h/mL"},
      {"measurement": "Cmax", "setting": "[1]; 20 mg, mean", "value": 39.3, "unit": "ng/mL"},
      {"measurement": "Tmax", "setting": "[1]; 20 mg, mean", "value": 4, "unit": "h"},
      {"measurement": "Vd/F", "setting": "[1]; 20 mg, mean", "value": 576, "unit": "L"},
      {"measurement": "half-life", "setting": "[1]; 20 mg, mean", "value": 27.8, "unit": "h"},
      {"measurement": "MRT last", "setting": "[1]; 20 mg, mean", "value": 25, "unit": "h"},
      {"measurement": "MRT inf", "setting": "[1]; 20 mg, mean", "value": 40.7, "unit": "h"},
      {"measurement": "AUC(0-inf)", "setting": "[1]; 40 mg, mean ± SD", "value": 2410, "unit": "ng·h/mL"},
      {"measurement": "AUC(0-t)", "setting": "[1]; 40 mg, mean ± SD", "value": 2270, "unit": "ng·h/mL"},
      {"measurement": "Cmax", "setting": "[1]; 40 mg, mean ± SD", "value": "148 ± 24.5", "unit": "ng/mL"},
      {"measurement": "Tmax", "setting": "[1]; 40 mg, mean ± SD", "value": "1.8 ± 0.3", "unit": "h"},
      {"measurement": "Vd/F", "setting": "[1]; 40 mg, mean ± SD", "value": "445 ± 100", "unit": "L"},
      {"measurement": "half-life", "setting": "[1]; 40 mg, mean ± SD", "value": "17.8 ± 1.4", "unit": "h"},
      {"measurement": "MRT last", "setting": "[1]; 40 mg, mean ± SD", "value": "18 ± 0.9", "unit": "h"},
      {"measurement": "MRT inf", "setting": "[1]; 40 mg, mean ± SD", "value": "22.4 ± 1.3", "unit": "h"},
      {"measurement": "AUC(0-inf)", "setting": "[1]; 80 mg, mean ± SD", "value": 6880, "unit": "ng·h/mL"},
      {"measurement": "AUC(0-t)", "setting": "[1]; 80 mg, mean ± SD", "value": 6510, "unit": "ng·h/mL"},
      {"measurement": "Cmax", "setting": "[1]; 80 mg, mean ± SD", "value": "347 ± 90.2", "unit": "ng/mL"},
      {"measurement": "Tmax", "setting": "[1]; 80 mg, mean ± SD", "value": "2.7 ± 1.5", "unit": "h"},
      {"measurement": "Vd/F", "setting": "[1]; 80 mg, mean ± SD", "value": "302 ± 70.4", "unit": "L"},
      {"measurement": "half-life", "setting": "[1]; 80 mg, mean ± SD", "value": "17.2 ± 1.8", "unit": "h"},
      {"measurement": "MRT last", "setting": "[1]; 80 mg, mean ± SD", "value": "18.6 ± 1.9", "unit": "h"},
      {"measurement": "MRT inf", "setting": "[1]; 80 mg, mean ± SD", "value": "22.7 ± 3.1", "unit": "h"},
      {"measurement": "AUC(0-inf)", "setting": "[1]; 140 mg, mean ± SD", "value": 15300, "unit": "ng·h/mL"},
      {"measurement": "AUC(0-t)", "setting": "[1]; 140 mg, mean ± SD", "value": 14200, "unit": "ng·h/mL"},
      {"measurement": "Cmax", "setting": "[1]; 140 mg, mean ± SD", "value": "854 ± 289", "unit": "ng/mL"},
      {"measurement": "Tmax", "setting": "[1]; 140 mg, mean ± SD", "value": "2 ± 1.7", "unit": "h"},
      {"measurement": "Vd/F", "setting": "[1]; 140 mg, mean ± SD", "value": "236 ± 37.6", "unit": "L"},
      {"measurement": "half-life", "setting": "[1]; 140 mg, mean ± SD", "value": "18 ± 3.6", "unit": "h"},
      {"measurement": "MRT last", "setting": "[1]; 140 mg, mean ± SD", "value": "19.1 ± 3.6", "unit": "h"},
      {"measurement": "MRT inf", "setting": "[1]; 140 mg, mean ± SD", "value": "24.8 ± 6.5", "unit": "h"},
      {"measurement": "AUC(0-inf)", "setting": "[1]; 200 mg, mean ± SD", "value": 15000, "unit": "ng·h/mL"},
      {"measurement": "AUC(0-t)", "setting": "[1]; 200 mg, mean ± SD", "value": 13100, "unit": "ng·h/mL"},
      {"measurement": "Cmax", "setting": "[1]; 200 mg, mean ± SD", "value": "641 ± 378", "unit": "ng/mL"},
      {"measurement": "Tmax", "setting": "[1]; 200 mg, mean ± SD", "value": "9.4 ± 10.1", "unit": "h"},
      {"measurement": "Vd/F", "setting": "[1]; 200 mg, mean ± SD", "value": "318 ± 92.2", "unit": "L"},
      {"measurement": "half-life", "setting": "[1]; 200 mg, mean ± SD", "value": "16 ± 1.9", "unit": "h"},
      {"measurement": "MRT last", "setting": "[1]; 200 mg, mean ± SD", "value": "21.5 ± 6.4", "unit": "h"},
      {"measurement": "MRT inf", "setting": "[1]; 200 mg, mean ± SD", "value": "21.8 ± 4", "unit": "h"},
      {"measurement": "in vivo exposure (Cmax, AUC0-t, AUC0-∞) versus dose", "setting": "[1]; single administrations, 20 to 140 mg", "value": "increased proportionally in a dose-dependent manner"},
      {"measurement": "CL/F", "setting": "[1]; 20 mg, mean", "value": 14.4, "unit": "L/h"},
      {"measurement": "CL/F", "setting": "[1]; 40 mg, mean ± SD", "value": "17.6 ± 4.8", "unit": "L/h"},
      {"measurement": "CL/F", "setting": "[1]; 80 mg, mean ± SD", "value": "12.2 ± 2.6", "unit": "L/h"},
      {"measurement": "CL/F", "setting": "[1]; 140 mg, mean ± SD", "value": "9.2 ± 0.5", "unit": "L/h"},
      {"measurement": "CL/F", "setting": "[1]; 200 mg, mean ± SD", "value": "13.6 ± 2.4", "unit": "L/h"},
      {"measurement": "longest treatment duration", "setting": "[2]; 40 mg, CLL/SLL patient", "value": 36, "unit": "months"},
      {"measurement": "median PFS time, follicular lymphoma", "setting": "[2]; 10 FL patients", "value": 300, "unit": "days"},
      {"measurement": "DCR, follicular lymphoma", "setting": "[2]; [3]", "value": 90, "unit": "%"},
      {"measurement": "ORR, follicular lymphoma", "setting": "[2]; [3]", "value": 90, "unit": "%"},
      {"measurement": "overall ORR", "setting": "[2]; 25 evaluable patients, 16/25, 95% CI 45.2, 82.8%", "value": 64.0, "unit": "%"},
      {"measurement": "disease control rate (DCR)", "setting": "[2]; 25 evaluable patients, 18/25, 95% CI 54.4, 89.6%", "value": 72.0, "unit": "%"},
      {"measurement": "median PFS time", "setting": "[2]; all evaluable patients combined", "value": 255, "unit": "days"},
      {"measurement": "CR, follicular lymphoma", "setting": "[2]; number of FL patients, 80 mg", "value": 3},
      {"measurement": "PD, follicular lymphoma", "setting": "[2]; number of FL patients, 200 mg", "value": 1},
      {"measurement": "PR, follicular lymphoma", "setting": "[2]; number of FL patients, 1/40 mg and 5/80 mg", "value": 6}
    ]}
  ]
}
